The source of these data is article PMC6100582 (Molecules : A Journal of Synthetic Chemistry and Natural …, 2018).

For one data set, the system named is Yellow Fever Virus. The experiment in a line: microbe, parasite or virus in culture. The format is cell-based. The following applies: Vero, read-out: EC50 Yellow Fever Virus, MTS.
Data set [1] deals with Hap1 (chronic myeloid leukemia). The experiment in a line: Antiproliferative screening (cytostatic activity). The format is cell-based. The following applies: Homo sapiens, HAP1; 72 h, IncuCyte imaging; read-out: IC50 Hap1. An outline of the steps:
(§1)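 Cells in 10% FBS medium were exposed to four concentrations from 100 to 0.8 µM, with adherent Hap1 treated after overnight attachment and suspension DND-41 and HL-60 seeded directly onto compound. Growth was tracked over 72 h at 37 °C by real-time IncuCyte imaging every 3 h, using duplicate points averaged.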

Data set [2] has as its system HL-60 (acute myeloid leukemia). Kind of data set: Antiproliferative screening (cytostatic activity). To be noted: Homo sapiens, HL-60; 72 h, IncuCyte imaging; read-out: IC50 HL-60. In kind it is cell-based. In a few lines:
as §1

Another data set deals with Para-Influenza-3 Virus. Kind of data set: organism not typed. The format is cell-based. The following applies: Vero cells, MTS; read-out: EC50 Para-Influenza-3 Virus, MTS.
Data set [3] deals with Streptococcus pneumoniae MFBF 10373. The experiment in a line: Antimicrobial susceptibility assay in vitro (MIC determination). The format is cell-based. The following applies: MFBF10373, serial microdilution, 18 h, 35 °C. Here is the method: (§2) Stock solutions of the tested compounds were prepared in DMSO (10 mg/mL). […] The absorbance was recorded at 540 nm. As a positive quality control (susceptibility of strains) tetracycline hydrochloride (TC) (Sigma-Aldrich) was added into wells.
Background: Broth dilution looks for growth in wells or tubes with falling amounts of substance.

In data set [4] the test system is Bacillus cereus ATCC 11778. Described as above. In kind it is cell-based. To be noted: ATCC11778, serial microdilution, 18 h, 35 °C. The method, then:
as §2

The subject of data set [5] is Bacillus subtilis ATCC 6633. Described as above. The following applies: ATCC6633, serial microdilution, 18 h, 35 °C. The format is cell-based. The method, then:
as §2

Data set [6] concerns Acinetobacter baumannii MFBF 10913. The description is as above. In kind it is cell-based. To be noted: MFBF10913, serial microdilution, 18 h, 35 °C. The method, then: as §2
Another data set is described as follows: in vitro. To be noted: African green monkey.
For the next data set, the system named is Coxsackie Virus B4. Kind of data set: Antiviral activity in Vero cell cultures. The format is cell-based. To be noted: Enterovirus B, B4; Vero cells, MTS; read-out: EC50 Coxsackie Virus B4, MTS.
Data set [7] concerns Enterococcus faecalis ATCC 29212. The experiment in a line: Minimum biofilm eradication assay. In kind it is cell-based. Here is the method:
(§3) MBECs of fumardiamides 4a–f and succindiamides 5a–f were determined as follows. Each well (96-well plate) was filled with 100 µl of bacterial (10^7 CFU/mL) or yeast (5 × 10^6 CFU/mL) suspension. When the inhibition of yeast biofilm formation was tested, the wells were pre-treated with fetal bovine serum (FBS) (250 µl per well). Negative controls contained broth only. Positive controls were performed using standard antimicrobial drugs gentamycin (Gen) and Amph, respectively. […] Following incubation period, each well was aspirated, washed three times and vigorously shaken to remove all non-adherent bacteria/yeast. The remaining attached cells were fixed with methanol (15 min) and the plates were left to dry overnight. Formed biofilm was stained with crystal violet (1%, 5 min). Excess stain was rinsed by placing the plate under running tap water and the plates were left to dry. Adherent cells were solubilized using ethanol. The absorbance was read at 570 nm. The MBEC value represents the lowest dilution of a compound at which bacteria fail to grow.

The subject of data set [8] is Bacillus subtilis ATCC 6633. The experiment in a line: Minimum biofilm eradication assay. In kind it is cell-based. Here is the method: as §3
Data set [9] deals with Mycobacterium tuberculosis H37Ra. The experiment in a line: Antimycobacterial susceptibility assay (MIC determination). The format is cell-based. The following applies: 168 h, 7 days, 37 °C, alamarBlue. Here is the method: At log phase growth, a culture sample (10 mL) was centrifuged at 15,000 rpm/20 min using a bench-top centrifuge (MPW-65R, MPW Med Instruments, Poland). Following removal of the supernatant, the pellet was washed in fresh Middlebrook 7H9GC broth and re-suspended in fresh, ODAC-supplemented MB (10 mL). The turbidity was adjusted to match McFarland standard No. 1 (3 × 10^8 CFU) with MB broth. A further 1:20 dilution of the culture was then performed in MB broth. The antimicrobial susceptibility of M. tuberculosis was investigated in a 96-well plate format. In these experiments, sterile deionised water (300 µl) was added to all outer-perimeter wells of the plates to minimize evaporation of the medium in the test wells during incubation. Each evaluated compound (100 µL) was incubated with M. tuberculosis (100 µl). Dilutions of each compound were prepared in duplicate. For all synthesized compounds, final concentrations ranged from 1000 μg/mL to 8 μg/mL. All compounds were dissolved in DMSO, and subsequent dilutions were made in supplemented MB. […] Following incubation, 10% of alamarBlue (Difco, Lawrence, KS, USA) was mixed into each well, and readings at 570 nm and 600 nm were taken, initially for background subtraction and subsequently after 24 h reincubation. […] For non-interfering compounds, a blue colour in the well was interpreted as the absence of growth, and a pink colour was scored as growth.
(In general: The colour change of resazurin is a common sign of viable cells or microbes.)

The subject of a further data set is Reovirus-1. Kind of data set: Antiviral activity in Vero cell cultures. The format is cell-based. The following applies: Vero cells, MTS; read-out: EC50 Reovirus-1, MTS.
The test system of another data set is Sindbis Virus. The experiment in a line: microbe, parasite or virus in culture. In kind it is cell-based. The following applies: Vero, read-out: EC50 Sindbis Virus, MTS.

In brackets after ≈: the same amount, converted by molar mass. Bounds are passed on as bounds.

As a reminder, the EC50 is the concentration that produces a half-maximal response. In general, IC50 refers to the concentration that inhibits the measured activity by half. As a reminder, the MIC is the lowest concentration that inhibits growth of the organism. The melting point is the temperature, or range, at which the solid turns liquid. Consider `COc1cc(NC(C)CCCNC(=O)/C=C/C(=O)Nc2ccc(C(F)(F)F)cc2)c2ncccc2c1` (stereo not shown) [Compound 4f, (2E)-N′-{4-[(6-Methoxyquinolin-8-yl)amino]pentyl}-N-[4-(trifluoromethyl)phenyl]but-2-enediamide], for which the melting point was in the range of 189 to 191 °C. In the data set with Yellow Fever Virus, the EC50 was greater than 50 µM. Further, the IC50 in [1] was greater than 100 µM. For the same compound, in data set [2], the IC50 was greater than 100 µM. The EC50 in the data set on Para-Influenza-3 Virus was greater than 50 µM. In addition, in data set [3], the lowest concentration to inhibit growth (MIC) was 50 µg/mL (≈ 99.9 µM). Also, in data set [4], the MIC is greater than 100 µg/mL. Moreover, the MIC in data set [5] was greater than 100 µg/mL. Besides, in [6], it took 25 µg/mL (≈ 49.9 µM) to inhibit growth (MIC). In the data set “in vitro”, this compound returned a CC50 greater than 50 µg/mL. Further, the EC50 with Coxsackie Virus B4 is greater than 50 µM. In data set [7], this compound had an MBEC of 50 µg/mL. In data set [8], this compound had an MBEC greater than 100 µg/mL. Further, the lowest concentration to inhibit growth in data set [9] (MIC) was 64 µg/mL (≈ 128 µM). Moreover, in the data set with Reovirus-1, the half-maximal effective concentration (EC50) was greater than 50 µM. In addition, in the data set with Sindbis Virus, the EC50 is greater than 50 µM.
